Laboratory results as given in ChEMBL document CHEMBL4627246, “Pyroglutamide-Based P2X7 Receptor Antagonists Targeting Inflammatory Bowel Disease” (J Med Chem, 2020).

What was measured:
Assay type in all cases: cell-based
[1] = system: CCRF-CEM; assay: Cytotoxicity against human CCRF-CEM cells assessed as effect on cell growth at 10 uM incubated for 48 hrs by sulforhodamine B assay
[2] = system: HL-60(TB); assay: Cytotoxicity against human HL-60(TB) cells assessed as effect on cell growth at 10 uM incubated for 48 hrs by sulforhodamine B assay
[3] = system: HOP-62; assay: Cytotoxicity against human HOP62 cells assessed as effect on cell growth at 10 uM incubated for 48 hrs by sulforhodamine B assay; conditions: hop-62, 48 h
[4] = system: HOP-92; assay: Cytotoxicity against human HOP92 cells assessed as effect on cell growth at 10 uM incubated for 48 hrs by sulforhodamine B assay; conditions: hop-92, 48 h
[5] = system: NCI-H460; assay: Cytotoxicity against human NCI-H460 cells assessed as effect on cell growth at 10 uM incubated for 48 hrs by sulforhodamine B assay; conditions: nci-h460, 48 h
[6] = system: HCT-15; assay: Cytotoxicity against human HCT15 cells assessed as effect on cell growth at 10 uM incubated for 48 hrs by sulforhodamine B assay; conditions: hct-15, 48 h
[7] = system: SW-620; assay: Cytotoxicity against human SW620 cells assessed as effect on cell growth at 10 uM incubated for 48 hrs by sulforhodamine B assay; conditions: sw-620, 48 h
[8] = system: SF-539; assay: Cytotoxicity against human SF539 cells assessed as effect on cell growth at 10 uM incubated for 48 hrs by sulforhodamine B assay; conditions: sf-539, 48 h
[9] = system: SNB-19; assay: Cytotoxicity against human SNB19 cells assessed as effect on cell growth at 10 uM incubated for 48 hrs by sulforhodamine B assay; conditions: snb-19, 48 h
[10] = system: UACC-62; assay: Cytotoxicity against human UACC62 cells assessed as effect on cell growth at 10 uM incubated for 48 hrs by sulforhodamine B assay; conditions: uacc-62, 48 h
[11] = system: OVCAR-5; assay: Cytotoxicity against human OVCAR5 cells assessed as effect on cell growth at 10 uM incubated for 48 hrs by sulforhodamine B assay; conditions: ovcar-5, 48 h
[12] = system: ACHN; assay: Cytotoxicity against human ACHN cells assessed as effect on cell growth at 10 uM incubated for 48 hrs by sulforhodamine B assay
[13] = system: RXF 393; assay: Cytotoxicity against human RXF393 cells assessed as effect on cell growth at 10 uM incubated for 48 hrs by sulforhodamine B assay; conditions: rxf 393, 48 h
[14] = system: UO-31; assay: Cytotoxicity against human UO31 cells assessed as effect on cell growth at 10 uM incubated for 48 hrs by sulforhodamine B assay; conditions: uo-31, 48 h
[15] = system: PC-3; assay: Cytotoxicity against human PC3 cells assessed as effect on cell growth at 10 uM incubated for 48 hrs by sulforhodamine B assay; conditions: pc-3, 48 h
[16] = system: MCF7; assay: Cytotoxicity against human MCF7 cells assessed as effect on cell growth at 10 uM incubated for 48 hrs by sulforhodamine B assay; conditions: mcf7, 48 h
[17] = system: MDA-MB-231; assay: Cytotoxicity against human MDA-MB-231 cells assessed as effect on cell growth at 10 uM incubated for 48 hrs by sulforhodamine B assay; conditions: mda-mb-231, 48 h
[18] = system: Hs-578T; assay: Cytotoxicity against human Hs 578T cells assessed as effect on cell growth at 10 uM incubated for 48 hrs by sulforhodamine B assay
[19] = system: BT-549; assay: Cytotoxicity against human BT549 cells assessed as effect on cell growth at 10 uM incubated for 48 hrs by sulforhodamine B assay; conditions: bt-549, 48 h
[20] = system: T47D; assay: Cytotoxicity against human T47D cells assessed as effect on cell growth at 10 uM incubated for 48 hrs by sulforhodamine B assay

Measured: Activity

O=C(NCc1ccc(Cl)cc1Cl)[C@@H]1COC(=O)N1c1cccs1
Non-Toxic: all assays above

O=C(NCc1ccc(Cl)cc1Cl)[C@@H]1CCC(=O)N1c1ccsc1
Non-Toxic: all assays above

O=C(NCc1ccc(Cl)cc1Cl)[C@@H]1CCC(=O)N1c1nccs1
Non-Toxic: all assays above

COc1cc(CN/C=C2\C[C@@H](C(=O)NCc3ccc(Cl)cc3Cl)NC2=O)cc(OC)c1OC
Non-Toxic: all assays above

O=C(NCc1ccccc1)[C@@H]1CCC(=O)N1Cc1ccc(Cl)cc1Cl
Non-Toxic: all assays above

O=C(NCc1ccc(Cl)cc1Cl)[C@@H]1CCC(=O)N1c1ccccc1
Non-Toxic: all assays above

CN(Cc1ccccc1)C(=O)[C@@H]1CCC(=O)N1Cc1ccc(Cl)cc1Cl
Non-Toxic: all assays above
